Article PMC11375437, “Selective labelling of GBA2 in cells with fluorescent β-D-arabinofuranosyl cyclitol aziridines” (Chemical Science, 2024)
“And” between values parts separate entries of the source, which are not always exact repeats. Equal entries are not always repeated. Where two headings read alike, the source gives them in different places.

Biological target: T1, rhGBA1 (imiglucerase) (Homo sapiens, UniProt P04062, R534H)
T1 construct: purchased Sanofi Genzyme (gift) Cerezyme®
T1 sequence (P04062 40-536 R534H): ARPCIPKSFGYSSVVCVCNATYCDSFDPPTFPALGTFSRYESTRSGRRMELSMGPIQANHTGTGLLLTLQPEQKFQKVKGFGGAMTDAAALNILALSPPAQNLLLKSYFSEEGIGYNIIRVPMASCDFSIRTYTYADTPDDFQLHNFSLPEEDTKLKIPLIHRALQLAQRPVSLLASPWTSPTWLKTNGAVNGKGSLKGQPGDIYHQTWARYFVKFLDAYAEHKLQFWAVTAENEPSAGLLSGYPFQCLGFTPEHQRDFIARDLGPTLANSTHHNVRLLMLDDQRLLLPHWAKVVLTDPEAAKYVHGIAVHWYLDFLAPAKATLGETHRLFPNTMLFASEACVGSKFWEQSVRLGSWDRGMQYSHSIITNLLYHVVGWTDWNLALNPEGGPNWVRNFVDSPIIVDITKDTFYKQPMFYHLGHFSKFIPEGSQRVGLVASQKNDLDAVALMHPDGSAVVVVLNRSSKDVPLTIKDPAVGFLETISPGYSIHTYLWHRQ
Assay: 4MU fluorogenic substrate assay for apparent IC50, rhGBA1
Assay type: biochemical
Details: 30 min pre-incubation, 4MU-β-D-Glc
Source text: To identify an ABP that selectively labels human GBA2 over GBA1 and GBA3, a library of cyclophellitol-based ABPs with varying configurations (ESI Fig. S1 ^†) was screened for their selectivity towards human retaining β-glucosidases. For this purpose, we initially assessed the inhibition properties of the compounds using recombinant human GBA1 (rhGBA1, imiglucerase), lysates of cells overexpressing GBA2 or GBA3 (both in combination with knockout of the other retaining β-glucosidases). In a preliminary screen, enzymes were pre-incubated for 30 min with the tested compounds, followed by the addition of the fluorogenic substrate, 4MU-β-D-Glc, and subsequent quantification of released fluorescent 4MU after 30 minutes. This screening brought our attention to a new set of β-D-Araf cyclitol aziridines as potential GBA2 inhibitors. […] On the other hand, the biotin-tagged β-D-Araf compound 6 is a poor inhibitor of all three glucosidases (apparent IC50 > 8 μM). Arabinofuranosyl cyclitol 12–20 with various configurations (α-L-Araf and β-L-Araf) were also evaluated (ESI Fig. S1 ^†).
Recombinant human GBA1 (rhGBA1, Imiglucerase) was kindly provided by Sanofi Genzyme (Cambridge, MA, USA). 4-Methylumbelliferyl-β-D-glucopyranoside substrates were purchase from Glycosynth (Warrington Cheshire, UK). Protein concentration was measured using the Pierce BCA assay kit (Thermo Fisher Scientific, Waltham, MA, USA). Harvested cells (cell pellets), cell lysates and tissue homogenates not used directly were stored at -80 °C. […]
2.5 4MU fluorogenic substrate assay for apparent IC50 determination
4MU fluorogenic substrate assays (using recombination human rhGBA1 or lysates of HEK293T cells) were conducted in 96-well plates at 37 °C. Samples were diluted with McIlvaine buffer (150 mM citric acid-Na2HPO4) to a final volume of 25 μL, at the appropriate pH for each enzyme. Assays were performed by incubating the samples with 100 μL 4-methylumbelliferyl-β-D-glucopyranoside substrate diluted in McIlvaine buffer for a period of 30 min. Enzyme activities and apparent IC50 values were determined by subtraction of the background (measured for incubations without enzyme) as previously described.4 The substrate mixtures used for each enzyme were as follows:
GBA1: 3.75 mM 4-MU-β-D-glucopyranoside in McIlvaine buffer (150 mM, pH 5.2, supplemented with 0.2% (w/v) sodium taurocholate, 0.1% (v/v) Triton X-100, 0.1% (w/v) bovine serum albumin (BSA)); GBA2: 3.75 mM 4 MU-β-D-glucopyranoside in McIlvaine buffer (150 mM, pH 5.8); GBA3: 3.75 mM 4-MU-β-D-glucopyranoside in McIlvaine buffer (150 mM, pH 6.0). To determine apparent IC50: For GBA1, 3.16 ng (53 fmol) of rhGBA1 (recombinant human GBA1, Imiglucerase) was prepared in 12.5 μL McIlvaine buffer (150 mM, pH 5.2, supplemented with 0.1% (v/v) Triton X-100, 0.2% (w/v) sodium taurocholate, and 0.1% (w/v) bovine serum albumin (BSA)). The enzyme was incubated with 12.5 μL […]
of inhibitors diluted in McIlvaine buffer (150 mM, pH 5.2) at 37 °C for 30 min or 3 h. For GBA2, lysates of GBA1/GBA2 KO HEK293T cells with GBA2 overexpression were prepared in 12.5 μL McIlvaine buffer (150 mM, pH 5.8), and incubated with 12.5 μL of inhibitors diluted in McIlvaine buffer (150 mM, pH 5.8) at 37 °C for 30 min or 3 h. For GBA3, lysates of GBA1/GBA2 KO HEK293T cells with GBA3 overexpression were prepared in 12.5 μL McIlvaine buffer (150 mM, pH 6.0), and incubated with 12.5 μL of inhibitors diluted in McIlvaine buffer (150 mM, pH 6.0) at 37 °C for 30 min or 3 h. Subsequently, the samples were incubated with 100 μL 4-methylumbelliferyl-β-D-glucopyranoside substrates dissolved in McIlvaine buffer described above for a period of 30 min. After stopping the enzyme reaction with 200 μL 1 M NaOH-glycine (pH 10.3), 4-methylumbelliferone fluorescence was measured with a fluorimeter LS55 (Perkin Elmer, Waltham, MA, USA) with λEX 366 nm and λEM 445 nm. The IC50 value was calculated using Graphpad Prism 9.0 with the Nonlinear regression (curve fit) - […]

[1] = imiglucerase (Cerezyme), pH 5.2, n = 3 for β-D-Araf, n = 1 for α-L-Araf and β-L-Araf, read-out: Apparent IC50 rhGBA1

Compound: CC1=CC(C)=[N+]2C1=C(CCCCc1cn(CCCCCCCCN3[C@@H]4[C@H](CO)[C@@H](O)[C@H](O)[C@@H]43)nn1)c1c(C)cc(C)n1[B-]2(F)F (some centres unmarked) [ABP 3]
- IC50 [1]: 4290 ± 157 nM

Compound: COc1ccc(C2=[N+]3C(=C(CCCCc4cn(CCCCCCCCN5[C@@H]6[C@H](CO)[C@@H](O)[C@H](O)[C@@H]65)nn4)c4ccc(-c5ccc(OC)cc5)n4[B-]3(F)F)C=C2)cc1 (some centres unmarked) [ABP 4]
- IC50 [1]: 1780 ± 71 nM

Compound: CN1/C(=C/C=C/C=C/C2=[N+](CCCCCC(=O)NCc3cn(CCCCCCCCN4[C@@H]5[C@H](CO)[C@@H](O)[C@H](O)[C@@H]54)nn3)c3ccccc3C2(C)C)C(C)(C)c2ccccc21 (some centres unmarked) [ABP 5]
- IC50 [1]: 250 to 300 nM and 295 nM

Compound: O=C(CCCC[C@@H]1SC[C@@H]2NC(=O)N[C@@H]21)NCc1cn(CCCCCCCCN2[C@@H]3[C@H](CO)[C@@H](O)[C@H](O)[C@@H]32)nn1 (some centres unmarked) [ABP 6]
- IC50 (read-out: Apparent IC50 GBA1): > 8000 nM
- IC50 [1]: 10700 ± 786 nM

Compound: OC[C@@H]1[C@@H](O)[C@H](O)[C@@H]2N[C@H]12 [Compound 1, β-D-Arabinofuranosyl cyclitol aziridine]
- IC50 (read-out: Apparent IC50 GBA1): > 50000 nM
- IC50 [1]: > 50000 nM

Compound: [N-]=[N+]=NCCCCCCCCN1[C@@H]2[C@H](CO)[C@@H](O)[C@H](O)[C@@H]21 (stereo partly drawn) [Compound 2, β-D-arabinofuranosyl cyclitol aziridine-azidooctyl]
- IC50 [1]: 2730 nM
